Data taken from patent US9676789B2, “Aminated derivative of homoharringtonine, preparation method therefor, and application thereof” (HANGZHOU BENSHENG PHARMACEUTICAL CO., LTD., priority 2011, dated 2017).
Values after ≈ are worked out from the molar mass of the structure shown.

Assays:
[1] = system: K562/adr, NB4, Kasumi-1 and H9; experiment: Anti-leukemia activity, summary over cell lines; assay type: cell-based, human; details: result in words, summary of Table 1
From the text: Leukemia cell lines: K562/adr (drug-resistant, chronic myeloid leukemia, CML), NB4 (acute promyelocytic leukemia, AML), Kasumi-1 (acute myeloid leukemia M2 type, AML-M2), Jurkat (acute lymphoblastic leukemia, ALL), all of which are donated by Cancer Research Institute of Zhejiang University, China; and H9 (acute lymphoblastic leukemia, ALL), which is purchased from China Center for Type Culture Collection.
Obtaining 6000 well-growing leukemia cells and inoculating them into wells of a 96-well cell culture plate. The culture medium is the 1640 cell culture medium containing 10% fetal bovine serum. After adding the homoharringtonine derivatives of different concentrations and mixing uniformly, placing the plate in a carbon dioxide cell incubator (5% CO2) at 37° C. and incubating for 72 hours. Then the viable cell concentration is determined by the MTT method. In this experiment, the cell viability in control group (not treated with any compound) is set as 100%.

[2] = system: H9 (acute lymphoblastic leukemia, ALL); experiment: MTT leukemia cell growth inhibition, 72 h; assay type: cell-based, human; details: Homo sapiens, H9, 72 h
In short: (§1)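 6000 cells per well were seeded in RPMI 1640 with 10% FBS, treated with graded concentrations of homoharringtonine derivatives, and incubated 72 h at 37 °C, 5% CO2. Viable cells were measured by MTT, with untreated control set as 100% viability.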

[3] = system: K562/adr (drug-resistant, chronic myeloid leukemia, CML); experiment: MTT leukemia cell growth inhibition, 72 h; assay type: cell-based, human; details: Homo sapiens, K562/Adr
In short: as §1

[4] = system: Jurkat (acute lymphoblastic leukemia, ALL); experiment: MTT leukemia cell growth inhibition, 72 h; assay type: cell-based, human; details: Homo sapiens
In short: as §1

[5] = system: NB4 (acute promyelocytic leukemia, AML); experiment: MTT leukemia cell growth inhibition, 72 h; assay type: cell-based, human; details: Homo sapiens, NB4, 72 h
In short: as §1

[6] = system: Kasumi-1 (acute myeloid leukemia M2 type, AML-M2); experiment: MTT leukemia cell growth inhibition, 72 h; assay type: cell-based, human; details: Homo sapiens, Kasumi-1, 72 h
In short: as §1

[7] = system: RPMI8226 (multiple myeloma); experiment: MTT multiple myeloma cell growth inhibition, 72 h; assay type: cell-based, human; details: Homo sapiens, RPMI-8226, RPMI8226, 72 h
In short: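 Viability determined by MTT after 72 h of compound exposure at 37° C under 5% CO2. Myeloma RPMI8226 cells were seeded at 6000 per well in 1640 medium containing 10% fetal bovine serum.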

[8] = system: MG63 (osteosarcoma); experiment: MTT solid tumor cell growth inhibition, 72 h; assay type: cell-based, human; details: Homo sapiens, MG 63, 72 h
In short: (§2)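 Cells (4000/well) were seeded in DMEM high glucose with 10% FBS and grown 24 h at 37° C, 5% CO2, then exposed to graded concentrations of homoharringtonine derivatives for 72 h. Viable cells were measured by MTT, with viability expressed as % of untreated control (100%).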

[9] = system: PC-3 (prostate cancer); experiment: MTT solid tumor cell growth inhibition, 72 h; assay type: cell-based, human; details: Homo sapiens, PC-3, 72 h
In short: as §2

[10] = system: CaES-17 (esophageal cancer cell); experiment: MTT solid tumor cell growth inhibition, 72 h; assay type: cell-based, human; details: Homo sapiens, CaEs17, CaES-17, 72 h
In short: as §2

[11] = system: SK-OV-3 (ovarian cancer cell); experiment: MTT solid tumor cell growth inhibition, 72 h; assay type: cell-based, human; details: Homo sapiens, SK-OV-3, 72 h
In short: as §2

[12] = system: PANC-1 (pancreatic cancer); experiment: MTT solid tumor cell growth inhibition, 72 h; assay type: cell-based, human; details: Homo sapiens, PANC-1, 72 h
In short: as §2

[13] = system: U87 MG (malignant glioma cell); experiment: MTT solid tumor cell growth inhibition, 72 h; assay type: cell-based, human; details: Homo sapiens, U-87 MG
In short: as §2

[14] = system: CNE (nasopharyngeal carcinoma cell); experiment: MTT solid tumor cell growth inhibition, 72 h; assay type: cell-based, human; details: Homo sapiens
In short: as §2

[15] = system: MGC 803 (human gastric cancer cell); experiment: MTT solid tumor cell growth inhibition, 72 h; assay type: cell-based; details: Homo sapiens, MGC 803, 72 h
In short: as §2

[16] = system: A549 (human lung cancer); experiment: MTT solid tumor cell growth inhibition, 72 h; assay type: cell-based; details: Homo sapiens, A549, 72 h
In short: as §2

[17] = system: Huh7 (human liver cancer cell); experiment: MTT solid tumor cell growth inhibition, 72 h; assay type: cell-based; details: Homo sapiens, Huh-7, Huh7, 72 h
In short: as §2

[18] = system: RKO (human colon adenocarcinoma cell); experiment: MTT solid tumor cell growth inhibition, 72 h; assay type: cell-based; details: Homo sapiens
In short: as §2

[19] = system: Hep-2 (human hepatocellular carcinoma); experiment: MTT solid tumor cell growth inhibition, 72 h; assay type: cell-based; details: Homo sapiens, HEp-2, Hep2, 72 h
In short: as §2

[20] = system: Hela (human cervical cancer cell); experiment: MTT solid tumor cell growth inhibition, 72 h; assay type: cell-based; details: Homo sapiens, HeLa
In short: as §2

[21] = system: Becap37 (human breast cancer cell); experiment: MTT solid tumor cell growth inhibition, 72 h; assay type: cell-based; details: Homo sapiens, Becap37, 72 h
In short: as §2

[22] = system: A549, PANC-1, Becap37, MG63, Huh7, RKO, Hela, CaES-17, CNE, Hep-2, PC-3 and SK-OV-3; experiment: Anti-human solid tumor effect, summary over cell lines; assay type: cell-based; details: result in words, summary of Table 2
Experimental: Human solid tumor cell lines: Hep-2 ([…]), A549 (human lung cancer), CaES-17 (esophageal cancer cell), PC-3 (prostate cancer), CNE (nasopharyngeal carcinoma cell), and SK-OV-3 (ovarian cancer cell), all of which are purchased from China Center For Type Culture Collection; RKO (human colon adenocarcinoma cell), MGC 803 (human gastric cancer cell), MG63 (osteosarcoma) and U87 MG (malignant glioma cell), all of which are purchased from Fuxiang Bio-tech Co. Ltd., Shanghai, China; PANC-1 (pancreatic cancer), Huh7 (human liver cancer cell), Becap37 (human breast cancer cell), and Hela (human cervical cancer cell), all of which are donated by Cancer Research Institute of Zhejiang University, China.
Obtaining 4000 well-growing human solid tumor cells and inoculating them into wells of a 96-well cell culture plate. The culture medium is DMEM High Glucose cell culture medium containing 10% fetal bovine serum. The plate is placed in a carbon dioxide cell incubator (5% CO2) at 37° C. and incubating for 24 hours. After adding the homoharringtonine derivatives of different concentration and mixing uniformly, the plate is placed in a carbon dioxide cell incubator (5% CO2) at 37° C. and incubating for 72 hours. Then the viable cell concentration is determined by the MTT method and the cell viability (%) after drug treatment is calculated. In this experiment, the cell viability of control group (not treated with any compound) is set as 100%.

**Q.** With COC1=C[C@]23CCCN2CCc2cc4c(cc2[C@@H]3[C@@H]1OC(=O)[C@@](O)(CCCC(C)(C)O)CC(=O)N1CCC(N(C)C)CC1)OCO4 [BS-HH-050] as the compound, how does the “anti-K562/adr, anti-NB4, anti-Kasumi-1 and anti-H9 activity” value [1] read?
**A.** strong

**Q.** What about the IC50 ([2]; read-out: IC50) of the same compound?
**A.** 0.13 µg/mL (≈ 0.203 µM)

**Q.** And the IC90 ([2]; read-out: IC90)?
**A.** 0.35 µg/mL (≈ 0.545 µM)

**Q.** And the IC50 ([3]; read-out: IC50)?
**A.** 0.72 µg/mL (≈ 1.12 µM)

**Q.** And the IC90 ([3]; read-out: IC90)?
**A.** 8.99 µg/mL (≈ 14 µM)

**Q.** What about the IC50 ([4]; read-out: IC50) of the same compound?
**A.** 0.12 µg/mL (≈ 0.187 µM)

**Q.** And the IC90 ([4]; read-out: IC90)?
**A.** 16 µg/mL (≈ 24.9 µM)

**Q.** And the IC50 ([5]; read-out: IC50)?
**A.** 0.08 µg/mL (≈ 0.125 µM)

**Q.** What about the IC90 ([5]; read-out: IC90) of the same compound?
**A.** 0.17 µg/mL (≈ 0.265 µM)

**Q.** And the IC50 ([6]; read-out: IC50)?
**A.** 0.041 µg/mL (≈ 0.0639 µM)

**Q.** What about the IC90 ([6]; read-out: IC90) of the same compound?
**A.** 0.18 µg/mL (≈ 0.28 µM)

**Q.** What about the IC50 ([7]; read-out: IC50) of the same compound?
**A.** 0.1 µg/mL (≈ 0.156 µM)

**Q.** And the IC90 ([7]; read-out: IC90)?
**A.** 0.38 µg/mL (≈ 0.592 µM)

**Q.** And the IC50 ([8]; read-out: IC50)?
**A.** 0.19 µg/mL (≈ 0.296 µM)

**Q.** And the IC90 ([8]; read-out: IC90)?
**A.** 7.22 µg/mL (≈ 11.2 µM)

**Q.** What about the IC50 ([9]; read-out: IC50) of the same compound?
**A.** 0.45 µg/mL (≈ 0.701 µM)

**Q.** And the IC90 ([9]; read-out: IC90)?
**A.** > 16 µg/mL

**Q.** And the IC50 ([10]; read-out: IC50)?
**A.** 0.46 µg/mL (≈ 0.717 µM)

**Q.** What about the IC90 ([10]; read-out: IC90) of the same compound?
**A.** 16 µg/mL (≈ 24.9 µM)

**Q.** And the IC50 ([11]; read-out: IC50)?
**A.** 0.57 µg/mL (≈ 0.888 µM)

**Q.** And the IC90 ([11]; read-out: IC90)?
**A.** > 16 µg/mL

**Q.** And the IC50 ([12]; read-out: IC50)?
**A.** 0.23 µg/mL (≈ 0.358 µM)

**Q.** And the IC90 ([12]; read-out: IC90)?
**A.** > 16 µg/mL

**Q.** And the IC50 ([13]; read-out: IC50)?
**A.** 0.24 µg/mL (≈ 0.374 µM)

**Q.** What about the IC90 ([13]; read-out: IC90) of the same compound?
**A.** 1.06 µg/mL (≈ 1.65 µM)

**Q.** What about the IC50 ([14]; read-out: IC50) of the same compound?
**A.** 0.15 µg/mL (≈ 0.234 µM)

**Q.** And the IC90 ([14]; read-out: IC90)?
**A.** > 16 µg/mL

**Q.** And the IC50 ([15]; read-out: IC50)?
**A.** 0.18 µg/mL (≈ 0.28 µM)

**Q.** And the IC90 ([15]; read-out: IC90)?
**A.** 0.48 µg/mL (≈ 0.748 µM)

**Q.** And the IC50 ([16]; read-out: IC50)?
**A.** 0.7 µg/mL (≈ 1.09 µM)

**Q.** What about the IC90 ([16]; read-out: IC90) of the same compound?
**A.** > 16 µg/mL

**Q.** And the IC50 ([17]; read-out: IC50)?
**A.** 0.1 µg/mL (≈ 0.156 µM)

**Q.** What about the IC90 ([17]; read-out: IC90) of the same compound?
**A.** 16 µg/mL (≈ 24.9 µM)

**Q.** And the IC50 ([18]; read-out: IC50)?
**A.** 0.053 µg/mL (≈ 0.0826 µM)

**Q.** And the IC90 ([18]; read-out: IC90)?
**A.** 0.23 µg/mL (≈ 0.358 µM)

**Q.** What about the IC50 ([19]; read-out: IC50) of the same compound?
**A.** 0.31 µg/mL (≈ 0.483 µM)

**Q.** What about the IC90 ([19]; read-out: IC90) of the same compound?
**A.** > 16 µg/mL

**Q.** What about the IC50 ([20]; read-out: IC50) of the same compound?
**A.** 0.46 µg/mL (≈ 0.717 µM)

**Q.** And the IC90 ([20]; read-out: IC90)?
**A.** > 16 µg/mL

**Q.** And the IC50 ([21]; read-out: IC50)?
**A.** 0.26 µg/mL (≈ 0.405 µM)

**Q.** And the IC90 ([21]; read-out: IC90)?
**A.** 16 µg/mL (≈ 24.9 µM)

**Q.** And the “anti-A549, anti-PANC-1, anti-Becap37, anti-MG63, anti-Huh7, anti-RKO, anti-Hela, anti-CaES-17, anti-CNE, anti-Hep-2, anti-PC-3 and anti-SK-OV-3 effect” value [22]?
**A.** strong
